In one assay the test system is Smad2. In words: Smad2-P Western blot of cortical lysates after in vivo albumin treatment. Conditions: animals exposed for 48 hours, compared to sham-operated controls. Also on record: species or system rat. As for the experimental part:
All experimental procedures were approved by the ethical committees dealing with experiments on animals at Charité University Medicine, Berlin and Ben-Gurion University of the Negev, Beer-Sheva. The in vivo experiments were performed as previously described (ivens et al., 2007; Seiffert et al., 2004). Adult male Wistar rats were treated with artificial cerebrospinal fluid (aCSF, composition in mM: 129 NaCl, 21 NaHCO3, 1.25 NaH2PO4, 1.8 MgSO4, 1.6 CaCl2, 3 KCl, 10 glucose) supplemented with deoxycholic acid (DOC, 2 mM, Sigma-Aldrich, Steinheim, Germany), bovine serum albumin (BSA, 0.1 mM. Merck, Darmstadt, Germany) corresponding to 25% of serum albumin concentration, or with TGF-β1 (10 ng/ml, Peprotech, Rocky Hill, N.J.). Sham-operated animals (perfused with aCSF) served as controls. […] Animals were sacrificed 7/8, 24, or 48 hours following treatment. […]
To determine whether albumin binds to TGF-β receptors, co-immunoprecipitation using antibodies against albumin or TGF-βRII was performed on cortical lysate samples treated with albumin. An expected hand corresponding to TGF-βRII was detected in samples immunoprecipitated with the TGF-βRII antibody. More importantly, this band was also detected in samples pre-incubated with albumin when immunoprecipitated with the albumin antibody and probed for TGF-βRII (FIG. 2a). […]
A general note: Immunoblotting shows a protein as a band on a membrane.

A further assay concerns cortical slices. Put plainly: Extracellular potassium accumulation in cortical slices measured with ion-sensitive microelectrodes. Type of assay: cell-based, rat. Conditions: slices 24 h following treatment with albumin; frequencies ≥10 Hz. As for the experimental part:
Electrophysiological recordings were obtained 6-10 h following perfusion with sACSF. Control slices were treated similarly, using sACSF without albumin. For extracellular recordings, glass microelectrodes (˜3 MΩ, 154 mM NaCl) were positioned in layer 4 of the neocortex. Slices were stimulated with brief (100 μs) pulses, by using bipolar stimulation electrodes placed at the border between white and gray matter in the same conical column. Trains of 50 stimuli were applied at 2, 5, 10, 20, 50 and 100 Hz, at 2.5× threshold stimulation intensity. […] Extracellular potassium concentrations ([K+]o) were measured with ion-sensitive microelectrodes (ISMEs; Lux and Neher, 1973: Jauch et al., 2002).
To study K^+ clearance from the extracellular space, K clearance was recorded from control and treated slices (24 h following treatment with albumin) by using ISMEs. Slower decay kinetics of [K^+]o in response to pressure application in BBB-treated animals has been reported (Ivens et al., 2007). Here, [K]o accumulation during neuronal activation at different frequencies of stimulation was tested. In slices from control animals, the increase in [K^+]o was limited to 25% of baseline levels (<3.75 mM) at all stimulation frequencies with the employed stimulation intensities and number of stimuli.

Assay [1] deals with albumin-induced epileptogenesis. Put plainly: EEG recording from awake rats during albumin-induced epileptogenesis. The class given is in vivo, rat.
[2] abbreviates: during albumin-induced epileptogenesis.

With “albumin: bovine serum albumin, used to induce epileptogenesis”, in the assay with Smad2, the “Smad2 phosphorylation levels in cortical lysates” value is given as “increase in Smad2 phosphorylation”. Further, in the assay on cortical slices, the “[K+]o accumulation during neuronal activation, level reached” value stood at 6.7 mM. In assay [1] (setting [2]), the “EEG complexity (fractal dimension)” value is given as “decrease” and the EEG signal harmony result was “increase”. In addition, in assay [1] (one week following treatment), the “number of seizure like events (SLEs)” value was “sharp increase”.

Values taken from patent US10668049B2, “Methods of treating cognitive decline with transforming growth factor beta inhibitors” (The Regents of the University of California, priority 2008, dated 2020).
